According to publication PMC10918664, “New Triazole-Based Potent Inhibitors of Human Factor XIIa as Anticoagulants” (ACS Omega, 2024):
Read-outs that look alike come from different tables or passages of the source. Blank lines part the entries; values can stand above or below the molecule they belong to.

Columns and labels:
thrombin (factor IIa) [1] = target: T1, thrombin (factor IIa) (Homo sapiens, UniProt P00734); set-up: method as in PMID 36321236; settings: previously reported inhibitor, in figure; read-out: FIIa IC50; cited from earlier work
T1 construct: The prothrombinase complex converts prothrombin (FII) to thrombin (FIIa); purchased Haematologic Technologies (Essex Junction, VT); host or cells: human plasma

human plasma [2] = tested on: human plasma; set-up: method as in PMID 36321236; settings: previously reported inhibitor, in figure; read-out: APTT (EC×1.5); cited from earlier work
human FXIIa = target: T2, human FXIIa (Homo sapiens, UniProt P00748); assay: Direct inhibition of human FXIIa, chromogenic substrate hydrolysis assay; settings: for HS (Hill slope) / ΔY (%) efficacy of inhibition: pH 7.4, 37 °C; for significant inhibitory activity against FXIIa in the screening: at 200 μM; for subclass of inhibitor based on selectivity studies: versus thrombin, FIXa, FXa, FXIa
T2 sequence (P00748 373-615 limits assumed): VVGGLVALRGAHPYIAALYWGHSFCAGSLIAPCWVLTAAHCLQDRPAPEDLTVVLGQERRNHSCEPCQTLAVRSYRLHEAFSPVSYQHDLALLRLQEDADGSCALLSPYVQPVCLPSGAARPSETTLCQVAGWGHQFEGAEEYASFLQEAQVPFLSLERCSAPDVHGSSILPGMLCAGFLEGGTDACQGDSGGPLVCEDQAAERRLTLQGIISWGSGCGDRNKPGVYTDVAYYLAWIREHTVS
T2 sequence (P00748 20-372 partner limits assumed): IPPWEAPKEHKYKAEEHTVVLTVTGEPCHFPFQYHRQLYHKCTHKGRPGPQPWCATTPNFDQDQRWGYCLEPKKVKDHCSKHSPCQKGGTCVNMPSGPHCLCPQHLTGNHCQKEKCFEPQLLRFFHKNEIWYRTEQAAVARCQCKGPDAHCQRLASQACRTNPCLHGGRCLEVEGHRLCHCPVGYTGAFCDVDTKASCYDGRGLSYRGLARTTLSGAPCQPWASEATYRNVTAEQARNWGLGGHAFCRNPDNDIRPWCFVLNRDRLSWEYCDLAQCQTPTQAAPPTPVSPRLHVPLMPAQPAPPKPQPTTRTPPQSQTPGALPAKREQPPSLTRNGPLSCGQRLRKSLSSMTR
Method: The slope of the resulting line corresponds to the residual enzyme activity, and the change in residual enzyme activity, relative to the concentration of the inhibitor, is plotted and fitted using the logistic eq 1. […] In this setup, each well of the 96-well microplate contained 175 μL of pH 7.4 TrisHCl buffer, to which 5 μL of potential inhibitors (or vehicle) and 5 μL of human FXIIa (stock concentration: 200 nM) were added sequentially. […] The relative residual FXIIa activity at each inhibitor concentration was computed by comparing the FXIIa activity in the absence and presence of the inhibitor. To obtain the potency (IC50) and efficacy (ΔY) of inhibition, the dose dependence of residual FXIIa activity was fitted to the logistic eq 1.

FXIa = target: T3, FXIa (Homo sapiens, UniProt P03951); assay: Inhibition of FXIa, chromogenic substrate hydrolysis assay; assay type: biochemical; settings: for IC50: pH 7.4, 37 °C; for selectivity index (IC50 enzyme/IC50 FXIIa): FXIa over FXIIa
T3 construct: purchased Haematologic Technologies (Essex Junction, VT); host or cells: human plasma
T3 sequence (P03951 388-625 limits assumed): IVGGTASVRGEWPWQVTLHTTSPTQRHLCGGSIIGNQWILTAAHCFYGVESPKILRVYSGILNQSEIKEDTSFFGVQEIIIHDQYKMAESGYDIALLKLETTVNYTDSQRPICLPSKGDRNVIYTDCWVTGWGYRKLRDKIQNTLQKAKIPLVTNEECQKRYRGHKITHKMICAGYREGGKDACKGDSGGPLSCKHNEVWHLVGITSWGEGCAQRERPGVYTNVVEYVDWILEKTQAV
T3 sequence (P03951 19-387 partner limits assumed): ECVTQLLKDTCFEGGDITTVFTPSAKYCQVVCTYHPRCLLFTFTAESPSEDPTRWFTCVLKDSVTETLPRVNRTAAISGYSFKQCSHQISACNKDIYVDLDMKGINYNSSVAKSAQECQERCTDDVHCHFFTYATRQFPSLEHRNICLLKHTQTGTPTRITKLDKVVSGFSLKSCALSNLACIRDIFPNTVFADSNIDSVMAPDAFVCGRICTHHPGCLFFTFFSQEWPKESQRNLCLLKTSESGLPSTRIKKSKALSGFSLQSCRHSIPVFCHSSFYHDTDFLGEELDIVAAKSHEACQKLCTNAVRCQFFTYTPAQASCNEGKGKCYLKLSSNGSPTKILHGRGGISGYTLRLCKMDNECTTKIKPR
Method: (§1) The selectivity was evaluated against thrombin and factors IXa, Xa, and XIa.
(§2) These assays were performed by using substrates and conditions appropriate for the enzyme being studied. To conduct selectivity analysis, various concentrations of the inhibitors were utilized, and the residual enzyme activity was assessed at each concentration. […] This allowed for the determination of the corresponding IC50 and efficacy of the enzyme–inhibitor complex. The KM of the chromogenic substrate with its enzyme was employed to ascertain the concentration of the chromogenic substrate used in the inhibition studies.

FIXa = target: T4, FIXa (Homo sapiens, UniProt P00740); assay: Inhibition of FIXa, chromogenic substrate hydrolysis assay; assay type: biochemical; settings: for IC50: FIXa, pH 7.4, 37 °C
T4 construct: purchased Haematologic Technologies (Essex Junction, VT); host or cells: human plasma
T4 sequence (P00740 227-461 limits assumed): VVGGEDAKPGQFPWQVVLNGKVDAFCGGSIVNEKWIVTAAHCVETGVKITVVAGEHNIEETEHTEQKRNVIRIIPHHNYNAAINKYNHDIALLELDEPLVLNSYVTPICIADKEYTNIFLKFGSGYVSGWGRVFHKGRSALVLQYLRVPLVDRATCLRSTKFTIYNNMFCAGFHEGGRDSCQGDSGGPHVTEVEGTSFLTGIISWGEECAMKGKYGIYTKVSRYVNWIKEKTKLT
T4 sequence (P00740 47-191 partner limits assumed): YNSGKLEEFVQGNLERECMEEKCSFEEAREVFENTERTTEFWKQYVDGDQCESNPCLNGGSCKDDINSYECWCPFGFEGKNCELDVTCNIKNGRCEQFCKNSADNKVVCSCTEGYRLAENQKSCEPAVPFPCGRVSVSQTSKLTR
Method: as §1, §2

thrombin (factor IIa) [3] = target: T1, thrombin (factor IIa); assay: Inhibition of thrombin, chromogenic substrate hydrolysis assay; assay type: biochemical; settings: for HS (Hill slope) / ΔY (%) / IC50: thrombin; for selectivity index (IC50 enzyme/IC50 FXIIa): thrombin over FXIIa; for IC50: pH 7.4, 37 °C
Method: as §1, §2

FXa = target: T5, FXa (Homo sapiens, UniProt P00742); assay: Inhibition of FXa, chromogenic substrate hydrolysis assay; assay type: biochemical
T5 construct: purchased Haematologic Technologies (Essex Junction, VT); host or cells: human plasma
T5 sequence (P00742 235-488 limits assumed): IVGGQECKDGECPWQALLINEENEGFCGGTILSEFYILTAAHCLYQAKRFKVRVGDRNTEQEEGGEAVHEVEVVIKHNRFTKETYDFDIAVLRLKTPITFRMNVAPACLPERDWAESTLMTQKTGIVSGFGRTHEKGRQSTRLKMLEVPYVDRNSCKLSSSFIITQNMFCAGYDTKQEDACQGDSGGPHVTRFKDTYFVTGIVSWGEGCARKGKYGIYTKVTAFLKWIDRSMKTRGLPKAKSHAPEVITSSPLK
T5 sequence (P00742 41-179 partner limits assumed): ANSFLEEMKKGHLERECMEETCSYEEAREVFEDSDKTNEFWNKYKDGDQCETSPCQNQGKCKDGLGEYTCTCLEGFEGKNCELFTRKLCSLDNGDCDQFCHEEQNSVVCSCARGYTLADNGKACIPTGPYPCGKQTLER
Method: as §1, §2

human plasma [4] = assay: Activated partial thromboplastin time (APTT) clotting assay; assay type: biochemical
Method: The APTT assay is employed to assess the impact of a new potential anticoagulant on clotting driven by the contact/intrinsic pathway, involving FIXa, FXIa, and FXIIa. Conversely, the PT assay is utilized to gauge the impact of the new potential anticoagulant on the extrinsic pathway of coagulation, which includes FVIIa. […] In the PT assay, thromboplastin-D was created by adding 4 mL of distilled water, and the resulting mixture was warmed to 37 °C. […] Upon the addition of 200 μL of prewarmed thromboplastin-D reagent, the clotting time was recorded. In the APTT assay, 90 μL of citrated human plasma was combined with 10 μL of the molecule of interest (or the vehicle) and 100 μL of prewarmed 0.2% ellagic acid. Following a 4 min incubation at 37 °C, clotting was initiated by introducing 100 μL of prewarmed 0.025 M CaCl2, and the clotting time was recorded. In both assays, approximately nine or more concentrations of molecules were employed to generate concentration vs effect profiles. The data were then plotted against a quadratic trendline, enabling the estimation of the concentration required to double the clotting time. Clotting times were similarly measured using 10 μL of highly purified water (negative control). The positive controls used in APTT and PT assays were (1) UFH, antithrombin activator; (2) argatroban, a clinically used thrombin inhibitor; (3) rivaroxaban, a clinically used FXa inhibitor; and (4) C6B7, a monoclonal antibody FXIIa inhibitor.

human plasma [5] = assay: Prothrombin time (PT) clotting assay; assay type: biochemical; settings: highest concentration of 2500 μM
Method: The APTT assay is employed to assess the impact of a new potential anticoagulant on clotting driven by the contact/intrinsic pathway, involving FIXa, FXIa, and FXIIa. Conversely, the PT assay is utilized to gauge the impact of the new potential anticoagulant on the extrinsic pathway of coagulation, which includes FVIIa. […] In the PT assay, thromboplastin-D was created by adding 4 mL of distilled water, and the resulting mixture was warmed to 37 °C. […] Upon the addition of 200 μL of prewarmed thromboplastin-D reagent, the clotting time was recorded. In the APTT assay, 90 μL of citrated human plasma was combined with 10 μL of the molecule of interest (or the vehicle) and 100 μL of prewarmed 0.2% ellagic acid. Following a 4 min incubation at 37 °C, clotting was initiated by introducing 100 μL of prewarmed 0.025 M CaCl2, and the clotting time was recorded. In both assays, approximately nine or more concentrations of molecules were employed to generate concentration vs effect profiles. The data were then plotted against a quadratic trendline, enabling the estimation of the concentration required to double the clotting time. Clotting times were similarly measured using 10 μL of highly purified water (negative control). […]

[6] = human FXIIa, Tris–HCl buffer pH 7.4, 37 °C

HS (Hill slope) (thrombin (factor IIa) [3]): 0.5 ± 0.02 | ΔY (%) (thrombin (factor IIa) [3]): 112 ± 10% | selectivity index (IC50 enzyme/IC50 FXIIa) (thrombin (factor IIa) [3]): 1.00 | IC50 (thrombin (factor IIa) [3]): 900 ± 200 nM | selectivity index (IC50 enzyme/IC50 FXIIa) (FXIa): >55.56 | IC50 (FXIa; FXIa): > 50000 nM | IC50 (human FXIIa): 900 ± 100 nM | HS (Hill slope) (human FXIIa; human FXIIa): 0.5 ± 0.02 | ΔY (%) efficacy of inhibition (human FXIIa; human FXIIa): 109 ± 2% | fold decrease in FXIIa inhibition potency (human FXIIa; relative to inhibitor 20 (bromine ortho to para)): ~11.3 fold
SMILES: COC(=O)c1nc(N)n(C(=O)c2ccc(Br)cc2)n1 [compound 21]
subclass of inhibitor based on selectivity studies (human FXIIa): dual inhibitors of FXIIa as well as thrombin

HS (Hill slope) (thrombin (factor IIa) [3]): 1.2 ± 0.2 | ΔY (%) (thrombin (factor IIa) [3]): 118 ± 7% | selectivity index (IC50 enzyme/IC50 FXIIa) (thrombin (factor IIa) [3]): 9.38 | IC50 (thrombin (factor IIa) [3]): 300 ± 50 nM | selectivity index (IC50 enzyme/IC50 FXIIa) (FXIa): >1562.50 | IC50 (FXIa; FXIa): > 50000 nM | EC50 (human plasma [4]; human plasma, read-out: APTT (EC×1.5), effective concentration to double the clotting time): 25000 to 75000 nM | IC50 (human FXIIa): 32 ± 8 nM | IC50 (human FXIIa; [6]): 32 ± 8 nM | HS (Hill slope) (human FXIIa; human FXIIa): 0.8 ± 0.1 | ΔY (%) efficacy of inhibition (human FXIIa; human FXIIa): 74 ± 7% | fold increase in FXIIa inhibition potency (human FXIIa; relative to inhibitor 9): 7.5 fold | fold more potent FXIIa inhibitor (human FXIIa; than inhibitor RA): 3.4 fold | subclass of inhibitor based on selectivity studies (human FXIIa): more specific inhibitors of FXIIa
SMILES: COC(=O)c1nc(N)n(C(=O)c2ccc(F)cc2)n1 [compound 22]

inhibition at 50 µM (thrombin (factor IIa) [3]; read-out: inhibition of thrombin at 50 μM): 43% | IC50 (FXIa; FXIa): > 50000 nM
SMILES: Cc1cccc(C(=O)n2cnnc2N)c1 [compound 24]

IC50 (thrombin (factor IIa) [3]): > 50000 nM
SMILES: Cc1cc(C)cc(C(=O)n2cnnc2N)c1 [compound 26]

HS (Hill slope) (thrombin (factor IIa) [3]): 1.0 ± 0.3 | ΔY (%) (thrombin (factor IIa) [3]): 53 ± 16% | IC50 (thrombin (factor IIa) [3]): 250 ± 140 nM
SMILES: COc1cc(OC)cc(C(=O)n2cnnc2N)c1 [compound 30]

IC50 (human FXIIa): 7900 nM | HS (Hill slope) (human FXIIa; human FXIIa): 0.9 ± 0.1 | ΔY (%) efficacy of inhibition (human FXIIa; human FXIIa): 91 ± 9%
SMILES: CCOC(=O)c1nc(N)n(C(=O)c2ccccc2)n1 [compound 31]

IC50 (human FXIIa): 6300 nM | HS (Hill slope) (human FXIIa; human FXIIa): 0.9 ± 0.2 | ΔY (%) efficacy of inhibition (human FXIIa; human FXIIa): 67 ± 8%
SMILES: COC(=O)c1nc(N)n(C(C)=O)n1 [compound 32]

Continued, molecule first:

SMILES: COC(=O)c1nc(N)n(C(=O)c2ccc(C(C)(C)C)cc2)n1 [RA, reference compound]
IC50 (thrombin (factor IIa) [1]): 235 nM | EC50 (human plasma [2]): 340000 nM | IC50 (human FXIIa; [6]): 110 ± 10 nM | HS (Hill slope) (human FXIIa; human FXIIa): 1.7 ± 0.4 | ΔY (%) efficacy of inhibition (human FXIIa; human FXIIa): 105 ± 8%

SMILES: COC(=O)c1nc(N)n(C(=O)c2ccccc2Cl)n1 [compound 7]
IC50 (FXIa; FXIa): 25900 ± 4400 nM | IC50 (FIXa): > 200000 nM | IC50 (human FXIIa): 1700 nM

SMILES: COC(=O)c1nc(N)n(C(=O)c2cc(OC)c(OC)c(OC)c2)n1 [compound 8]
HS (Hill slope) (thrombin (factor IIa) [3]): 0.9 ± 0.2 | ΔY (%) (thrombin (factor IIa) [3]): 102.0 ± 4.5% | selectivity index (IC50 enzyme/IC50 FXIIa) (thrombin (factor IIa) [3]): 0.42 | IC50 (thrombin (factor IIa) [3]): 19 ± 4 nM | HS (Hill slope) (FXIa; FXIa): 0.9 ± 0.1 | ΔY (%) (FXIa; FXIa): 100.3 ± 3.1% | selectivity index (IC50 enzyme/IC50 FXIIa) (FXIa): 331.11 | IC50 (FXIa; FXIa): 14900 ± 1400 nM | selectivity index (IC50 enzyme/IC50 FXIIa) (FIXa; FIXa over FXIIa): >4000 | IC50 (FIXa): > 180000 nM | HS (Hill slope) (FXa; FXa): 1.2 ± 0.2 | ΔY (%) (FXa; FXa): 100.8 ± 2.7% | selectivity index (IC50 enzyme/IC50 FXIIa) (FXa; FXa over FXIIa): 1057.78 | IC50 (FXa; FXa, pH 7.4, 37 °C): 47600 ± 5800 nM | fold increased potency regarding the effect on APTT (human plasma [4]; relative to RA): ~6 fold | IC50 (human FXIIa): 45 ± 3 nM | HS (Hill slope) (human FXIIa; human FXIIa): 1.1 ± 0.1 | ΔY (%) efficacy of inhibition (human FXIIa; human FXIIa): 100 ± 2%

SMILES: COC(=O)c1nc(N)n(C(=O)c2ccccc2)n1 [compound 9]
HS (Hill slope) (thrombin (factor IIa) [3]): 1.1 ± 0.2 | ΔY (%) (thrombin (factor IIa) [3]): 89 ± 5% | selectivity index (IC50 enzyme/IC50 FXIIa) (thrombin (factor IIa) [3]): 0.23 | IC50 (thrombin (factor IIa) [3]): 54 ± 8 nM | IC50 (FXIa; FXIa): > 50000 nM | IC50 (human FXIIa; human FXIIa): 240 ± 10 nM | HS (Hill slope) (human FXIIa; human FXIIa): 1.1 ± 0.1 | ΔY (%) efficacy of inhibition (human FXIIa; human FXIIa): 92 ± 3%

SMILES: CC(C)(C)c1ccc(C(=O)n2ncnc2N)cc1 [compound 10]
IC50 (human FXIIa; FXIIa, summary picture in supplement): 8500 nM | IC50 (human FXIIa; [6]): 8500 ± 1200 nM | HS (Hill slope) (human FXIIa; human FXIIa): 1.4 ± 0.7 | ΔY (%) efficacy of inhibition (human FXIIa; human FXIIa): 82 ± 8% | fold less potent FXIIa inhibitor (human FXIIa; than inhibitor RA): 77.3 fold

SMILES: Cc1ccc(S(=O)(=O)n2cnc([N+](=O)[O-])n2)cc1 [compound 12]
significant inhibitory activity against FXIIa in the screening (human FXIIa): none

SMILES: O=C(O)c1nc(NS(=O)(=O)c2ccccc2[N+](=O)[O-])n[nH]1 [compound 13]
effect on APTT (human plasma [4]; highest concentration of 2500 μM): did not affect | effect on PT (human plasma [5]): did not affect | significant inhibitory activity against FXIIa in the screening (human FXIIa): none

SMILES: O=C(O)c1ncn(-c2ccccc2)n1 [compound 14]
significant inhibitory activity against FXIIa in the screening (human FXIIa): none

SMILES: O=C(O)Cc1nc(-c2ccccc2)n[nH]1 [compound 15]
significant inhibitory activity against FXIIa in the screening (human FXIIa): none

SMILES: COC(=O)c1nc(N)n(C(=O)c2ccc(Cl)cc2)n1 [compound 19]
IC50 (human FXIIa): 7800 nM | HS (Hill slope) (human FXIIa; human FXIIa): 0.8 ± 0.1 | ΔY (%) efficacy of inhibition (human FXIIa; human FXIIa): 102 ± 5% | fold decrease in FXIIa inhibition potency (human FXIIa; relative to inhibitor 7 (chlorine ortho to para)): ~4.6 fold

SMILES: COC(=O)c1nc(N)n(C(=O)c2ccccc2Br)n1 [compound 20]
HS (Hill slope) (thrombin (factor IIa) [3]): 0.9 ± 0.1 | ΔY (%) (thrombin (factor IIa) [3]): 113 ± 8% | selectivity index (IC50 enzyme/IC50 FXIIa) (thrombin (factor IIa) [3]): 1.13 | IC50 (thrombin (factor IIa) [3]): 90 ± 20 nM | selectivity index (IC50 enzyme/IC50 FXIIa) (FXIa): >625 | IC50 (FXIa; FXIa): > 50000 nM | IC50 (human FXIIa): 80 ± 10 nM | HS (Hill slope) (human FXIIa; human FXIIa): 0.8 ± 0.1 | ΔY (%) efficacy of inhibition (human FXIIa; human FXIIa): 76 ± 5% | subclass of inhibitor based on selectivity studies (human FXIIa): dual inhibitors of FXIIa as well as thrombin
